# Reference: patent US20200405697A1, “Antitumor Agent” (Taiho Pharmaceutical Co., Ltd, priority 2017, published 2020)
# Target: T1, human RNR (histidine tagged human M1 and human M2 proteins) (Homo sapiens, UniProt P23921)
# T1 construct: made in house; host or cells: Escherichia coli
# T1 sequence (P23921 1-792): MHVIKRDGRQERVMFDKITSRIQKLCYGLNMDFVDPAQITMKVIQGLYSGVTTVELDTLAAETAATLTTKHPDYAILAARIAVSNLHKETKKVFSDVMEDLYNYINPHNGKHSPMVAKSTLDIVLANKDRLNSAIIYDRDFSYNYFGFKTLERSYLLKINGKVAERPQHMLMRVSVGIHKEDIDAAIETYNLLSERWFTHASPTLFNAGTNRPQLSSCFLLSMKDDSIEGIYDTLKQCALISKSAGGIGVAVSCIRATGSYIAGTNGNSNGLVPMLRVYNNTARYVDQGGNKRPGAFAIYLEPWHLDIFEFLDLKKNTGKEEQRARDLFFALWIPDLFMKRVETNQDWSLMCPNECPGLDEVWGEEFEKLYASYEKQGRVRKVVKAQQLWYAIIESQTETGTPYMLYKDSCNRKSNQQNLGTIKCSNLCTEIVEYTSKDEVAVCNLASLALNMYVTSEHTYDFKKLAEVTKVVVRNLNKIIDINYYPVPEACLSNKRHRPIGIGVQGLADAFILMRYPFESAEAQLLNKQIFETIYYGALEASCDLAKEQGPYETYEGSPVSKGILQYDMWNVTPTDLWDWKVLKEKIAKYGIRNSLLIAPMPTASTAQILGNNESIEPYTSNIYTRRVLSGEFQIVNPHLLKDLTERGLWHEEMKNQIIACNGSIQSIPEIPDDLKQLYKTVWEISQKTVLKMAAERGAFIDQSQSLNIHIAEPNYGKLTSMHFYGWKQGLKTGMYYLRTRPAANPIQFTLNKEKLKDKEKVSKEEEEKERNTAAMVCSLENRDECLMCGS
# Experiment: Human RNR inhibition effect (dCDP formation from CDP)
# Type: biochemical
# Details: 10 μM CDP, 37° C. for 30 minutes, read-out: RNR inhibitory activity IC50
# Experimental: The inhibitory activity against the ribonucleotide reduction reaction (RNR inhibitory activity) of the Example compound was determined by measuring the formation of deoxycytidine diphosphate (hereinafter referred to as dCDP) from cytidine diphosphate (hereinafter referred to as CDP) by the following method.
# Human M1 subunit (isoform 1, GenBank accession No: NM_001033), to which a histidine tag is fused at the amino terminus, and human M2 subunit (mutant lacking amino terminal 59 amino acids of isoform 2, GenBank accession No: NM_001034), to which a histidine tag is fused, were overexpressed in Escherichia coli and were solubilized after collection, and histidine tagged human M1 and histidine tagged human M2 proteins were purified on a nickel chelate column. A mixture of the histidine tagged human M1 and histidine tagged human M2 proteins was used as RNR in the ribonucleotide reduction reaction. [to]
# First, Example compounds were serially diluted with DMSO. Next, human M1 protein and human M2 protein were added to a 0.02% aqueous albumin solution derived from fetal bovine serum, a DMSO solution of the Example compound or the control DMSO solution (final concentration of DMSO was 1%) was added, and the mixture was allowed to stand for 20 minutes. Thereafter, the reaction buffer [50 mM HEPES buffer (pH 7.2) at the final concentration, 4 mM magnesium acetate at the final concentration, 100 mM potassium chloride at the final concentration, 6 mM dithiothreitol at the final concentration, 2 mM adenosine triphosphate at the final concentration, 0.24 mM nicotinamide adenine dinucleotide phosphate at final concentration] and 10 μM CDP at the final concentration were added and incubated at 37° C. for 30 minutes to perform ribonucleotide reduction reaction. Immediately after the reaction, the reaction was stopped by heating at 100° C. for 15 minutes, followed by centrifugation at 10,000 rpm for 10 minutes. After the centrifugation, a portion (5 μL) of the resulting supernatant was analyzed with a high performance liquid chromatography (Shimadzu Corporation, Prominence) using Shim-pack XR-ODS (manufactured by Shimadzu GLC Co., 3.0×100 mm).
row,SMILES,IC50
1,"Cc1ccc(S(=O)(=O)N[C@H](c2n[nH]c(=O)o2)[C@H](C)c2c(F)ccc3ccccc23)c(C(N)=O)c1 [Example 12, 2-(N-((1S,2R)-2-(2-Fluoronaphthalen-1-yl)-1-(5-oxo-4,5-dihydro-1,3,4-oxadiazol-2-yl)propyl)sulfamoyl)-5-methylbenzamide]",170 nM
2,"Cc1cc(F)c(F)c([C@@H](C)[C@H](NS(=O)(=O)c2ccc(Cl)cc2C(N)=O)c2n[nH]c(=O)o2)c1C [Example 13, 5-chloro-2-(N-((1S,2R)-2-(2,3-difluoro-5,6-dimethylphenyl)-1-(5-oxo-4,5-dihydro-1,3,4-oxadiazol-2-yl)propyl)sulfamoyl)benzamide]",140 nM
3,"C[C@H](c1c(F)ccc2ccccc12)[C@H](NS(=O)(=O)c1ccc(Br)cc1C(N)=O)c1n[nH]c(=O)o1 [Example 15, 5-bromo-2-(N-((1S,2R)-2-(2-fluoronaphthalen-1-yl)-1-(5-oxo-4,5-dihydro-1,3,4-oxadiazol-2-yl)propyl)sulfamoyl)benzamide]",100 nM
4,"Cc1ccc(F)c([C@@H](C)[C@H](NS(=O)(=O)c2ccc(C3CC3)cc2C(N)=O)c2n[nH]c(=O)o2)c1C [Example 16, 5-Cyclopropyl-2-(N-((1S,2R)-2-(6-Fluoro-2,3-dimethylphenyl)-1-(5-oxo-4,5-dihydro-1,3,4-oxadiazol-2-yl)propyl)sulfamoyl)benzamide]",130 nM
5,"Cc1ccc(F)c([C@@H](C)[C@H](NS(=O)(=O)c2ccccc2C(N)=O)c2n[nH]c(=O)o2)c1C [Example 20, 2-(N-((1S,2R)-2-(6-fluoro-2,3-dimethylphenyl)-1-(5-oxo-4,5-dihydro-1,3,4-oxadiazol-2-yl)propyl)sulfamoyl)benzamide]",260 nM
6,"Cc1ccc(F)c([C@@H](C)[C@H](NS(=O)(=O)c2ccc(Cl)cc2C(N)=O)c2n[nH]c(=O)o2)c1 [Example 21, 5-chloro-2-(N-((1S,2R)-2-(2-fluoro-5-methylphenyl)-1-(5-oxo-4,5-dihydro-1,3,4-oxadiazol-2-yl)propyl)sulfamoyl)benzamide]",240 nM
7,"Cc1cccc(F)c1[C@@H](C)[C@H](NS(=O)(=O)c1ccc(Cl)cc1C(N)=O)c1n[nH]c(=O)o1 [Example 22, 5-chloro-2-(N-((1S,2R)-2-(2-fluoro-6-methylphenyl)-1-(5-oxo-4,5-dihydro-1,3,4-oxadiazol-2-yl)propyl)sulfamoyl)benzamide]",340 nM
8,"Cc1cccc(F)c1[C@H](C)[C@H](NS(=O)(=O)c1ccc(Cl)cc1C(N)=O)c1n[nH]c(=O)o1 [Example 23, 5-chloro-2-(N-((1S,2S)-2-(2-fluoro-6-methylphenyl)-1-(5-oxo-4,5-dihydro-1,3,4-oxadiazol-2-yl)propyl)sulfamoyl)benzainide]",740 nM
9,"Cc1c(Cl)ccc(F)c1[C@@H](C)[C@H](NS(=O)(=O)c1ccc(Br)cc1C(N)=O)c1n[nH]c(=O)o1 [Example 25, 5-bromo-2-(N-((1S,2R)-2-(3-chloro-6-fluoro-2-methylphenyl)-1-(5-oxo-4,5-dihydro-1,3,4-oxadiazol-2-yl)propyl)sulfamoyl)benzamide]",150 nM
10,"Cc1c(C2CC2)ccc(F)c1[C@@H](C)[C@H](NS(=O)(=O)c1ccc(Cl)cc1C(N)=O)c1n[nH]c(=O)o1 [Example 26, 5-chloro-2-(N-((1S,2R)-2-(3-cyclopropyl-6-fluoro-2-methylphenyl)-1-(5-oxo-4,5-dihydro-1,3,4-oxadiazol-2-yl)propyl)sulfamoyl)benzamide]",160 nM
11,"Cc1c(F)ccc(F)c1[C@@H](C)[C@H](NS(=O)(=O)c1ccc(Cl)cc1C(N)=O)c1n[nH]c(=O)o1 [Example 28, 5-chloro-2-(N-((1S,2R)-2-(3,6-difluoro-2-methylphenyl)-1-(5-oxo-4,5-dihydro-1,3,4-oxadiazol-2-yl)propyl)sulfamoyl)benzamide]",500 nM
12,"Cc1c(Br)ccc(F)c1[C@@H](C)[C@H](NS(=O)(=O)c1ccc(Cl)cc1C(N)=O)c1n[nH]c(=O)o1 [Example 30, 2-(N-((1S,2R)-2-(3-bromo-6-fluoro-2-methylphenyl)-1-(5-oxo-4,5-dihydro-1,3,4-oxadiazol-2-yl)propyl)sulfamoyl)-5-chlorobenzamide]",150 nM
13,"Cc1ccc(F)c([C@@H](C)[C@H](NS(=O)(=O)c2ccc(Cl)c(C(N)=O)n2)c2n[nH]c(=O)o2)c1C [Example 31, 3-chloro-6-(N-((1S,2R)-2-(6-fluoro-2,3-dimethylphenyl)-1-(5-oxo-4,5-dihydro-1,3,4-oxadiazol-2-yl)propyl)sulfamoyl)picolinamide]",100 nM

# More lines, in order of falling IC50, values ahead:
row,IC50,SMILES
1,600 nM,"C[C@H](c1cc(F)cc2ccccc12)[C@H](NS(=O)(=O)c1ccc(Cl)cc1C(N)=O)c1n[nH]c(=O)o1 [Example 9, 5-chloro-2-(N-((1S,2R)-2-(3-fluoronaphthalen-1-yl)-1-(5-oxo-4,5-dihydro-1,3,4-oxadiazol-2-yl)propyl)sulfamoyl)benzamide]"
2,550 nM,"Cc1c(C(F)(F)F)ccc(F)c1[C@@H](C)[C@H](NS(=O)(=O)c1ccc(Cl)cc1C(N)=O)c1n[nH]c(=O)o1 [Example 27, 5-chloro-2-(N-((1S,2R)-2-(6-fluoro-2-methyl-3-(trifluoromethyl)phenyl)-1-(5-oxo-4,5-dihydro-1,3,4-oxadiazol-2-yl)propyl)sulfamoyl)benzamide]"
3,500 nM,"Cc1ccc(F)c([C@@H](C)[C@H](NS(=O)(=O)c2ccc(Cl)cc2C(N)=O)c2n[nH]c(=O)o2)c1Cl [Example 17, 5-chloro-2-(N-((1S)-2-(2-chloro-6-fluoro-3-methylphenyl)-1-(5-oxo-4,5-dihydro-1,3,4-oxadiazol-2-yl)propyl)sulfamoyl)benzamide]"
4,450 nM,"Cc1cc(F)cc([C@@H](C)[C@H](NS(=O)(=O)c2ccc(Cl)cc2C(N)=O)c2n[nH]c(=O)o2)c1C [Example 7, 15-chloro-2-(N-((1S,2R)-2-(5-fluoro-2,3-dimethylphenyl)-1-(5-oxo-4,5-dihydro-1,3,4-oxadiazol-2-yl)propyl)sulfamoyl)benzamide]"
5,190 nM,"Cc1ccc(F)c([C@@H](C)[C@H](NS(=O)(=O)c2ccc(Cl)nc2C(N)=O)c2n[nH]c(=O)o2)c1C [Example 19, 6-Chloro-3-(N-((1S,2R)-2-(6-fluoro-2,3-dimethylphenyl)-1-(5-oxo-4,5-dihydro-1,3,4-oxadiazol-2-yl)propyl)sulfamoyl)picolinamide]"
6,140 nM,"Cc1ccc(S(=O)(=O)N[C@H](c2n[nH]c(=O)o2)[C@H](C)c2c(F)ccc(C)c2C)c(C(N)=O)c1 [Example 10, 2-(N-((1S,2R)-2-(3-6-fluoro-2,3-dimethylphenyl)-1-(5-oxo-4,5-dihydro-1,3,4-oxadiazol-2-yl)propyl)sulfamoyl)-5-methylbenzamide]"
7,130 nM,"CCc1ccc(S(=O)(=O)N[C@H](c2n[nH]c(=O)o2)[C@H](C)c2c(F)ccc(C)c2C)c(C(N)=O)c1 [Example 18, 5-Ethyl-2-(N-((1S,2R)-2-(6-fluoro-2,3-dimethylphenyl)-1-(5-oxo-4,5-dihydro-1,3,4-oxadiazol-2-yl)propyl)sulfamoyl)benzamide]"
8,110 nM,"C[C@H](c1c(F)ccc2ccccc12)[C@H](NS(=O)(=O)c1ccc(Cl)cc1C(N)=O)c1n[nH]c(=O)o1 [Example 6, 5-chloro-2-(N-((1S,2R)-2-(2-fluoronaphthalen-1-yl)-1-(5-oxo-4,5-dihydro-1,3,4-oxadiazol-2-yl)propyl)sulfamoyl)benzamide]"
